From US20030201224A1, “Microbial consortium for the biodegradation of dithiocarbamates” (priority 2002, published 2003)
Where two headings read alike, the source gives them in different places.

Key:
consortium [1] = test: Degradation of other N-alkyl dithiocarbamates by the consortium (1000 ml bioreactor); details: pH 7.2, 20-27° C.
Description: A 1000 ml bioreactor containing the synthetic medium (described above) has been inoculated with the consortium density of approximately 1.1×10^7 ml. The initial pH value was 7.2 and the temperature varied between 20-27° C. Dithiocarbamate concentration was measured spectrophometrically by complexing with cupric acetate and measuring the absorbance at 430 nm.

consortium [2] = details: within 72 hour; waste wash-water about 1100 ppm SDM and dilution at 500 ppm, pH 7.8; 20% inoculum of 72 h consortium
Description: The sample, and a dilution of it at 500 ppm and pH 7.8, was inoculated with a 20% (VN) amount of a 72 h consortium. A control without inoculation was included.

microbial consortium = details: soil
Description: One soil environment was inoculated with approximately 1.2×10^7 consortium members/g soil while the other remained uninoculated. Nitrogen and phosphorus was added to both systems. The initial soil pH was 6.8 and the temperature varied from 18° C. to 27° C. Water was added to maintain the dry weight at about 30%. Each soil system was mixed weekly to provide aeration.

In the case of `CCCN(CCC)C(=S)[S-].[Na+]` [DiPropyl Dithiocarbamate, Sodium Dipropyl dithiocarbamates], the “% degradation (percent loss over the abiotic Control)” value (consortium [1]; time 0 h) is reported as 3.99%, the “% degradation (percent loss over the abiotic Control)” value (consortium [1]; time 0.5 h) is reported as 3.87% and the “% degradation (percent loss over the abiotic Control)” value (consortium [1]; time 1.5 h) is reported as 4.21%. For the same compound, the “% degradation (percent loss over the abiotic Control)” value (consortium [1]; time 4 h) was 3.56%, the “% degradation (percent loss over the abiotic Control)” value (consortium [1]; time 5 h) was 3.49% and the “% degradation (percent loss over the abiotic Control)” value (consortium [1]; time 7 h) was 4.37%. For the same compound, the “% degradation (percent loss over the abiotic Control)” value (consortium [1]; time 27 h) was 7.82%, the “% degradation (percent loss over the abiotic Control)” value (consortium [1]; time 51 h) was 9.43% and the “% degradation (percent loss over the abiotic Control)” value (consortium [1]; time 73 h) was 11.24%. For the same compound, the “% degradation (percent loss over the abiotic Control)” value (consortium [1]; time 96 h) was 14.56%.
In the case of `CCCCN(CCCC)C(=S)[S-].[Na+]` [Dibutyl Dithiocarbamate, Sodium Dibutyl dithiocarbamates], the “% degradation (percent loss over the abiotic Control)” value (consortium [1]; time 0 h) is reported as 4.44%, the “% degradation (percent loss over the abiotic Control)” value (consortium [1]; time 0.5 h) is reported as 4.70% and the “% degradation (percent loss over the abiotic Control)” value (consortium [1]; time 1.5 h) is reported as 4.10%. The “% degradation (percent loss over the abiotic Control)” value (consortium [1]; time 4 h) was 3.81%, the “% degradation (percent loss over the abiotic Control)” value (consortium [1]; time 5 h) was 3.98% and the “% degradation (percent loss over the abiotic Control)” value (consortium [1]; time 7 h) was 4.12%. The “% degradation (percent loss over the abiotic Control)” value (consortium [1]; time 27 h) was 6.11%, the “% degradation (percent loss over the abiotic Control)” value (consortium [1]; time 51 h) was 6.66% and the “% degradation (percent loss over the abiotic Control)” value (consortium [1]; time 73 h) was 7.93%. For the same compound, the “% degradation (percent loss over the abiotic Control)” value (consortium [1]; time 96 h) was 9.46%.
With `CCN(CC)C(=S)S` [Diethyl Dithiocarbamate, sodium diethyl dithiocarbamate] the “% degradation (percent loss over the abiotic Control)” value (consortium [1]; time 0 h) was 3.28%, the “% degradation (percent loss over the abiotic Control)” value (consortium [1]; time 0.5 h) was 2.80% and the “% degradation (percent loss over the abiotic Control)” value (consortium [1]; time 1.5 h) was 8.78%. For the same compound, the “% degradation (percent loss over the abiotic Control)” value (consortium [1]; time 4 h) was 8.18%, the “% degradation (percent loss over the abiotic Control)” value (consortium [1]; time 5 h) was 13.29% and the “% degradation (percent loss over the abiotic Control)” value (consortium [1]; time 7 h) was 15.01%. For the same compound, the “% degradation (percent loss over the abiotic Control)” value (consortium [1]; time 27 h) was 18.00%, the “% degradation (percent loss over the abiotic Control)” value (consortium [1]; time 51 h) was 21.00% and the “% degradation (percent loss over the abiotic Control)” value (consortium [1]; time 73 h) was 23.00%. The “% degradation (percent loss over the abiotic Control)” value (consortium [1]; time 96 h) was 25.07%.
`CN(C)C(=S)[S-].[Na+]` [SDM, Sodium dimethyl dithiocarbamate] was tested, and the “SDM degraded by the consortium” value (consortium [2]) was roughly 100%, the “PERCENT degradation of SDM” value (microbial consortium; 100 mg SDM per kg soil, 1 d) was 1.6% and the “PERCENT degradation of SDM” value (microbial consortium; 100 mg SDM per kg soil, 3 d) was 18.3%. The “PERCENT degradation of SDM” value (microbial consortium; 100 mg SDM per kg soil, 7 d) was 50.2%, the “PERCENT degradation of SDM” value (microbial consortium; 500 mg SDM per kg soil, 1 d) was 6.2% and the “PERCENT degradation of SDM” value (microbial consortium; 500 mg SDM per kg soil, 3 d) was 22.6%. For the same compound, the “PERCENT degradation of SDM” value (microbial consortium; 500 mg SDM per kg soil, 7 d) was 63%, the “PERCENT degradation of SDM” value (microbial consortium; 1000 mg SDM per kg soil, 1 d) was 4.8% and the “PERCENT degradation of SDM” value (microbial consortium; 1000 mg SDM per kg soil, 3 d) was 16.3%. For the same compound, the “PERCENT degradation of SDM” value (microbial consortium; 1000 mg SDM per kg soil, 7 d) was 39.7%, the “PERCENT degradation of SDM” value (microbial consortium; 1000 mg SDM per kg soil, 10 d) was 48% and the “PERCENT degradation of SDM” value (microbial consortium; 1000 mg SDM per kg soil, 14 d) was 72%. For the same compound, the “PERCENT degradation of SDM” value (microbial consortium; 1000 mg SDM per kg soil, 20 d) was 76%, the “PERCENT degradation of SDM” value (microbial consortium; 2000 mg SDM per kg soil, 1 d) was 3.9% and the “PERCENT degradation of SDM” value (microbial consortium; 2000 mg SDM per kg soil, 3 d) was 12.4%. The “PERCENT degradation of SDM” value (microbial consortium; 2000 mg SDM per kg soil, 7 d) was 26.7%, the “PERCENT degradation of SDM” value (microbial consortium; 2000 mg SDM per kg soil, 10 d) was 32.1% and the “PERCENT degradation of SDM” value (microbial consortium; 2000 mg SDM per kg soil, 14 d) was 47.6%. The “PERCENT degradation of SDM” value (microbial consortium; 2000 mg SDM per kg soil, 20 d) was 54%, the “PERCENT degradation of SDM” value (microbial consortium; 2000 mg SDM per kg soil, 28 d) was 58% and the “PERCENT degradation of SDM” value (microbial consortium; 5000 mg SDM per kg soil, 1 d) was 5.2%. For the same compound, the “PERCENT degradation of SDM” value (microbial consortium; 5000 mg SDM per kg soil, 3 d) was 3.1%, the “PERCENT degradation of SDM” value (microbial consortium; 5000 mg SDM per kg soil, 7 d) was 2.3% and the “PERCENT degradation of SDM” value (microbial consortium; 5000 mg SDM per kg soil, 10 d) was 1.8%. The “PERCENT degradation of SDM” value (microbial consortium; 5000 mg SDM per kg soil, 14 d) was 3.6%, the “PERCENT degradation of SDM” value (microbial consortium; 5000 mg SDM per kg soil, 20 d) was 1.8% and the “PERCENT degradation of SDM” value (microbial consortium; 5000 mg SDM per kg soil, 28 d) was 3.2%. The “% degradation (percent loss over the abiotic Control)” value (consortium [1]; time 0.5 h) was 8.1%, the “% degradation (percent loss over the abiotic Control)” value (consortium [1]; time 1.5 h) was 9.5% and the “% degradation (percent loss over the abiotic Control)” value (consortium [1]; time 4 h) was 12.3%. For the same compound, the “% degradation (percent loss over the abiotic Control)” value (consortium [1]; time 5 h) was 12.1%, the “% degradation (percent loss over the abiotic Control)” value (consortium [1]; time 7 h) was 27.1% and the “% degradation (percent loss over the abiotic Control)” value (consortium [1]; time 27 h) was 61.4%. The “% degradation (percent loss over the abiotic Control)” value (consortium [1]; time 51 h) was 77.8%, the “% degradation (percent loss over the abiotic Control)” value (consortium [1]; time 73 h) was 88.7% and the “% degradation (percent loss over the abiotic Control)” value (consortium [1]; time 96 h) was 97.5%.
